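In this assay, cells in 96-well plates receive the compound at five concentrations for 48 hours. Endpoints are linearly interpolated between the surrounding concentrations. GI50 is the concentration that inhibits growth by half. TGI is the concentration that stops growth completely.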
Experiments:
Assay in all cases: NCI tumour cell line growth inhibition, 48 h
[1] = test system: LOX IMVI melanoma
[2] = test system: SR leukemia
[3] = test system: CCRF-CEM leukemia
[4] = test system: NCI/ADR-RES ovarian
[5] = test system: HCT-116 colon
[6] = test system: HS 578T breast
[7] = test system: COLO 205 colon
[8] = test system: SK-OV-3 ovarian
[9] = test system: NCI-H460 lung
[10] = test system: MALME-3M melanoma
[11] = test system: MDA-N
[12] = test system: IGROV1 ovarian
[13] = test system: NCI-H23 lung
[14] = test system: UACC-257 melanoma
[15] = test system: HOP-92 NSCLC
[16] = test system: BT-549 breast
[17] = test system: P388 leukemia
[18] = test system: PC-3 prostate
[19] = test system: KM12 colon
[20] = test system: T-47D breast
[21] = test system: OVCAR-4 ovarian
[22] = test system: MCF7 breast
[23] = test system: OVCAR-3 ovarian
[24] = test system: CAKI-1 renal
[25] = test system: P388/ADR leukemia
[26] = test system: SW-620 colon
[27] = test system: SNB-78 CNS
[28] = test system: U251 CNS
[29] = test system: HT29 colon
[30] = test system: HOP-62 NSCLC
[31] = test system: MDA-MB-231 breast
[32] = test system: NCI-H226 lung
[33] = test system: NCI-H522 lung
[34] = test system: DMS 273 small cell lung
[35] = test system: SN12K1 renal
[36] = test system: DLD-1 colon
[37] = test system: SK-MEL-2 melanoma
[38] = test system: DU-145 prostate
[39] = test system: SN12C renal
[40] = test system: SNB-19 CNS
[41] = test system: 786-0 renal
[42] = test system: SNB-75 CNS
[43] = test system: HL-60(TB) leukemia
[44] = test system: K-562 leukemia
[45] = test system: HOP-18 NSCLC
[46] = test system: UO-31 renal
[47] = test system: A549 NSCLC
[48] = test system: OVCAR-5 ovarian
[49] = test system: SK-MEL-28 melanoma
[50] = test system: EKVX NSCLC
[51] = test system: SF-539 CNS
[52] = test system: UACC-62 melanoma
[53] = test system: ACHN renal
[54] = test system: RXF 393 renal
[55] = test system: HCT-15 colon
[56] = test system: MDA-MB-435
[57] = test system: KM20L2 colon
[58] = test system: M14 melanoma
[59] = test system: OVCAR-8 ovarian
[60] = test system: A498 renal
[61] = test system: RPMI-8226 leukemia
[62] = test system: SK-MEL-5 melanoma
[63] = test system: SF-268 CNS
[64] = test system: M19-MEL melanoma
[65] = test system: HCC-2998 colon
[66] = test system: XF 498 CNS
[67] = test system: TK-10 renal
[68] = test system: MOLT-4 leukemia
[69] = test system: SF-295 CNS
[70] = test system: DMS 114 small cell lung

**Q.** How did the TGI [1] turn out when `COc1cc([C@@H]2c3cc4c(cc3[C@@H](OC3OC5CO[C@@H](c6cccs6)OC5C(O)C3O)[C@H]3COC(=O)[C@H]23)OCO4)cc(OC)c1O` (some centres not stated) was run?
**A.** 4.4 µM

**Q.** What about the TGI [2] of the same compound?
**A.** 3.28 µM

**Q.** And the TGI [3]?
**A.** 3.89 µM

**Q.** And the TGI [4]?
**A.** 25 µM

**Q.** And the TGI [5]?
**A.** 10.7 µM

**Q.** And the TGI [6]?
**A.** 4.71 µM

**Q.** And the TGI [7]?
**A.** 5.06 µM

**Q.** And the TGI [8]?
**A.** 1.93 µM

**Q.** What about the TGI [9] of the same compound?
**A.** 2.59 µM

**Q.** And the TGI [10]?
**A.** 4.29 µM

**Q.** And the TGI [11]?
**A.** 10.4 µM

**Q.** What about the TGI [12] of the same compound?
**A.** 13.3 µM

**Q.** And the TGI [13]?
**A.** 4.44 µM

**Q.** What about the TGI [14] of the same compound?
**A.** 12.3 µM

**Q.** And the TGI [15]?
**A.** 1.76 µM

**Q.** What about the TGI [16] of the same compound?
**A.** 2.53 µM

**Q.** What about the TGI [17] of the same compound?
**A.** 1.93 µM

**Q.** And the TGI [18]?
**A.** 21.9 µM

**Q.** What about the TGI [19] of the same compound?
**A.** 5.06 µM

**Q.** And the TGI [20]?
**A.** 4.21 µM

**Q.** And the TGI [21]?
**A.** 16.7 µM

**Q.** And the TGI [22]?
**A.** 15.6 µM

**Q.** And the TGI [23]?
**A.** 6.89 µM

**Q.** And the TGI [24]?
**A.** 2 µM

**Q.** What about the TGI [25] of the same compound?
**A.** 14.3 µM

**Q.** And the TGI [26]?
**A.** 9.5 µM

**Q.** And the TGI [27]?
**A.** 10.4 µM

**Q.** What about the TGI [28] of the same compound?
**A.** 2.47 µM

**Q.** What about the TGI [29] of the same compound?
**A.** 11.7 µM

**Q.** And the TGI [30]?
**A.** 0.866 µM

**Q.** And the TGI [31]?
**A.** 3.81 µM

**Q.** What about the TGI [32] of the same compound?
**A.** 3.05 µM

**Q.** And the TGI [33]?
**A.** 4.16 µM

**Q.** And the TGI [34]?
**A.** 3.03 µM

**Q.** What about the TGI [35] of the same compound?
**A.** 1.84 µM

**Q.** And the TGI [36]?
**A.** 11.3 µM

**Q.** What about the TGI [37] of the same compound?
**A.** 4.37 µM

**Q.** And the TGI [38]?
**A.** 2.12 µM

**Q.** And the TGI [39]?
**A.** 2.33 µM

**Q.** What about the TGI [40] of the same compound?
**A.** 9.24 µM

**Q.** What about the TGI [41] of the same compound?
**A.** 1.19 µM

**Q.** What about the TGI [42] of the same compound?
**A.** 4 µM

**Q.** What about the TGI [43] of the same compound?
**A.** 1.35 µM

**Q.** What about the TGI [44] of the same compound?
**A.** 17.2 µM

**Q.** What about the TGI [45] of the same compound?
**A.** 14.2 µM

**Q.** What about the TGI [46] of the same compound?
**A.** 12.1 µM

**Q.** And the TGI [47]?
**A.** 4.17 µM

**Q.** What about the TGI [48] of the same compound?
**A.** 11.7 µM

**Q.** What about the TGI [49] of the same compound?
**A.** 12.4 µM

**Q.** And the TGI [50]?
**A.** 4.33 µM

**Q.** What about the TGI [51] of the same compound?
**A.** 2.2 µM

**Q.** And the TGI [52]?
**A.** 2.71 µM

**Q.** And the TGI [53]?
**A.** 2.12 µM

**Q.** What about the TGI [54] of the same compound?
**A.** 3.38 µM

**Q.** What about the TGI [55] of the same compound?
**A.** 11.3 µM

**Q.** What about the TGI [56] of the same compound?
**A.** 10.7 µM

**Q.** And the TGI [57]?
**A.** 14.6 µM

**Q.** And the TGI [58]?
**A.** 3.71 µM

**Q.** What about the TGI [59] of the same compound?
**A.** 3.5 µM

**Q.** What about the TGI [60] of the same compound?
**A.** 3.51 µM

**Q.** And the TGI [61]?
**A.** 3.35 µM

**Q.** What about the TGI [62] of the same compound?
**A.** 3.31 µM

**Q.** And the TGI [63]?
**A.** 7.24 µM

**Q.** What about the TGI [64] of the same compound?
**A.** 12.4 µM

**Q.** What about the TGI [65] of the same compound?
**A.** 3.47 µM

**Q.** What about the TGI [66] of the same compound?
**A.** 3.73 µM

**Q.** What about the TGI [67] of the same compound?
**A.** 6.89 µM

**Q.** What about the GI50 [68] of the same compound?
**A.** 0.0161 µM

**Q.** And the TGI [68]?
**A.** 0.473 µM

**Q.** What about the TGI [69] of the same compound?
**A.** 1.2 µM

**Q.** For `CCCCCCCCCCCCCCCCCCOP(=O)([O-])OCC[N+](C)(C)C`, which TGI [1] is on record?
**A.** 1.96 µM

**Q.** And the TGI [2]?
**A.** > 100 µM

**Q.** What about the TGI [3] of the same compound?
**A.** 2.52 µM

**Q.** And the TGI [4]?
**A.** 5.22 µM

**Q.** What about the TGI [5] of the same compound?
**A.** 3.12 µM

**Q.** What about the TGI [70] of the same compound?
**A.** 26.8 µM

**Q.** What about the TGI [7] of the same compound?
**A.** 0.5 µM

**Q.** And the TGI [8]?
**A.** 43.4 µM

**Q.** And the TGI [9]?
**A.** 1.94 µM

**Q.** And the TGI [10]?
**A.** 3.38 µM

**Q.** What about the TGI [12] of the same compound?
**A.** 26.1 µM

**Q.** What about the TGI [13] of the same compound?
**A.** 30.4 µM

**Q.** What about the TGI [14] of the same compound?
**A.** 25.6 µM

**Q.** What about the TGI [15] of the same compound?
**A.** 1.07 µM

**Q.** And the TGI [16]?
**A.** 5.82 µM

**Q.** And the TGI [17]?
**A.** 15.1 µM

**Q.** And the TGI [19]?
**A.** 0.632 µM

**Q.** And the TGI [21]?
**A.** 1.29 µM

**Q.** And the TGI [22]?
**A.** 3.11 µM

**Q.** What about the TGI [23] of the same compound?
**A.** 2.79 µM

**Q.** And the TGI [24]?
**A.** 22.8 µM

**Q.** What about the TGI [25] of the same compound?
**A.** 27.3 µM

**Q.** What about the TGI [26] of the same compound?
**A.** 6.66 µM

**Q.** What about the TGI [27] of the same compound?
**A.** 15.8 µM

**Q.** What about the TGI [28] of the same compound?
**A.** 4.71 µM

**Q.** And the TGI [29]?
**A.** 2.2 µM

**Q.** And the TGI [30]?
**A.** 1.38 µM

**Q.** What about the TGI [31] of the same compound?
**A.** 3.5 µM

**Q.** And the TGI [32]?
**A.** 3.31 µM

**Q.** And the TGI [33]?
**A.** 1.46 µM

**Q.** And the TGI [34]?
**A.** 13.4 µM

**Q.** What about the TGI [35] of the same compound?
**A.** 26.9 µM

**Q.** What about the TGI [36] of the same compound?
**A.** 16.9 µM

**Q.** And the TGI [37]?
**A.** 3.11 µM

**Q.** And the TGI [39]?
**A.** 1.53 µM

**Q.** And the TGI [40]?
**A.** 47.9 µM

**Q.** And the TGI [41]?
**A.** 0.169 µM

**Q.** And the TGI [42]?
**A.** 1.7 µM

**Q.** What about the TGI [43] of the same compound?
**A.** 5.83 µM

**Q.** What about the TGI [44] of the same compound?
**A.** 10.4 µM

**Q.** And the TGI [45]?
**A.** 30.1 µM

**Q.** And the TGI [46]?
**A.** 36.1 µM

**Q.** And the TGI [47]?
**A.** 5.13 µM

**Q.** What about the TGI [48] of the same compound?
**A.** 6.82 µM

**Q.** What about the TGI [49] of the same compound?
**A.** 42.2 µM

**Q.** And the TGI [50]?
**A.** 8.29 µM

**Q.** What about the TGI [51] of the same compound?
**A.** 2.59 µM

**Q.** What about the TGI [52] of the same compound?
**A.** 20.8 µM

**Q.** What about the TGI [53] of the same compound?
**A.** 0.37 µM

**Q.** What about the TGI [54] of the same compound?
**A.** 23.1 µM

**Q.** What about the TGI [55] of the same compound?
**A.** 3.24 µM

**Q.** What about the TGI [57] of the same compound?
**A.** 12.5 µM

**Q.** And the TGI [59]?
**A.** 2.39 µM

**Q.** And the TGI [60]?
**A.** > 46.4 µM

**Q.** And the TGI [61]?
**A.** 2.64 µM

**Q.** What about the TGI [62] of the same compound?
**A.** 17.5 µM

**Q.** And the TGI [63]?
**A.** 2.21 µM

**Q.** What about the TGI [64] of the same compound?
**A.** 16.3 µM

**Q.** What about the TGI [65] of the same compound?
**A.** 7.01 µM

**Q.** And the TGI [66]?
**A.** 25.4 µM

**Q.** What about the TGI [68] of the same compound?
**A.** 5.89 µM

**Q.** And the TGI [69]?
**A.** 3.49 µM
